According to patent publication US12595231B2 (priority 2022, dated 2026):
Read-outs that look alike come from different tables or passages of the source.

Legend:
[1] = assay type: physicochemical; conditions: for HPLC Conc.: 25° C., 24 h, with respect to mesembrine; for HPLC Purity: solution/mother liquor
Protocol: Approximately 20 mg of each salt was weighed into 3×2 mL push cap vials. 0.1 mL of buffer (Chloride pH 1.2; Acetate pH 4.5; Phosphate pH 6.8) was added to each vial, at 25° C. The experiment was stirred for ca. 24 h. After 2 h, the pH was measured and adjusted if required. After 24 h a final pH measurement was taken. Any slurries were centrifuged and the solids analysed by XRPD.

[2] = DVS analysis (water uptake); assay type: physicochemical; conditions: for hygroscopicity: from DVS water uptake at 80% RH
[3] = salt hydration study in methanol/water of known water activity; assay type: physicochemical; conditions: 25° C.; for Observation: 24 h; for Solubility: methanol/water, all levels of water activity (aw 0.2, 0.5, 0.8)
Protocol: Approximately 20 mg of the hydrochloride (HCl), besylate and fumarate salts were weighed into 3×2 mL push cap vials. 0.05-0.1 mL of relevant solvent system was added to each vial, at 25° C.
Methanol/water solvent systems (99:1, 75:25, 33:67) of known water activity (aw 0.2, 0.5 and 0.8 respectively) were used. The experiment was stirred for ca. 24 h. After 24 h, any slurries were centrifuged, and the solids analysed by XRPD.
An additional hydration study was required in order to repeat the salt hydration studies, for the HCl salt and the besylate salt due to dissolution in the first set of experiments:
For each salt, approximately 10 mg was weighed into 4×2 mL vials and a stirrer bar added. 10 μL of each solvent system was added, at 25° C. The experiments were stirred for 24 h, and any solids recovered were then analysed by XRPD.

[4] = VH-XRPD analysis (variable humidity); assay type: physicochemical
1-week stability study = assay type: physicochemical; conditions: for Observation: Sigma Aldrich colour chart
Protocol: A 1-week stability study was performed for hydrochloride salt Pattern 1, besylate salt Pattern 1, fumarate salt Pattern 1+4, and fumarate salt Pattern 4.
Approximately 5 mg of the salt was weighed into 3×2 mL push cap vials. The 2 mL vials were then each placed inside a 20 mL vial, with the lids on or off as required. The solids were placed under the required stability conditions for 1 week at the following three conditions: 40° C./75% RH (open); 80° C. (closed); Ambient light, temperature and humidity (open)
After 1-week, visual observations were noted, then the solids were analysed by XRPD and HPLC.

[5] = primary salt formation assessment: solution degradation (HPLC of mother liquor); assay type: physicochemical; conditions: salt formation experiment
Protocol: HPLC analysis was carried out to determine the chemical purity of the mesembrine and to provide information on any impurities. The following conditions were use: • Column: Waters Acquity BEH 018 1.7 μm 150 mm×2.1 mm • Column Temperature: 33° C. • Autosampler Temperature: 25° C. • UV Wavelength: 280 nm • Injection Volume: 5 μL • Flow Rate: 0.29 mL/min • Mobile Phase A: 0.1% NH4 in H2O • Mobile Phase B: Methanol:Water 20:80% v/v • Gradient Program: […]
The experiments were then temperature cycled between the upper temperature limit (specified in Table 3.1) and 5° C. at 0.1° C./min, with 1 h holds at the upper temperature limit, and 5° C. for ca. 72 h.
After temperature cycling, solids were isolated from experiments at 5° C., and analysed by XRPD.

[6] = primary salt formation assessment: storage at 40° C./75% RH for ca. 24 h, XRPD; assay type: physicochemical; conditions: solids stored at 40° C./75% RH for ca. 24 h
Protocol: Solids were dried at 40° C. under vacuum for ca. 24 h, and then re-analysed by XRPD.
Solids were then stored at 40° C./75% RH for ca. 24 h, and then re-analysed by XRPD.

[7] = HCl salt, background statement; cited from earlier work
5-HT transporter = 5-HT transporter (Homo sapiens, UniProt P31645); conditions: Harvey et al., 2011; cited from earlier work
5-HT transporter, sequence (P31645 whole entry, species assumed): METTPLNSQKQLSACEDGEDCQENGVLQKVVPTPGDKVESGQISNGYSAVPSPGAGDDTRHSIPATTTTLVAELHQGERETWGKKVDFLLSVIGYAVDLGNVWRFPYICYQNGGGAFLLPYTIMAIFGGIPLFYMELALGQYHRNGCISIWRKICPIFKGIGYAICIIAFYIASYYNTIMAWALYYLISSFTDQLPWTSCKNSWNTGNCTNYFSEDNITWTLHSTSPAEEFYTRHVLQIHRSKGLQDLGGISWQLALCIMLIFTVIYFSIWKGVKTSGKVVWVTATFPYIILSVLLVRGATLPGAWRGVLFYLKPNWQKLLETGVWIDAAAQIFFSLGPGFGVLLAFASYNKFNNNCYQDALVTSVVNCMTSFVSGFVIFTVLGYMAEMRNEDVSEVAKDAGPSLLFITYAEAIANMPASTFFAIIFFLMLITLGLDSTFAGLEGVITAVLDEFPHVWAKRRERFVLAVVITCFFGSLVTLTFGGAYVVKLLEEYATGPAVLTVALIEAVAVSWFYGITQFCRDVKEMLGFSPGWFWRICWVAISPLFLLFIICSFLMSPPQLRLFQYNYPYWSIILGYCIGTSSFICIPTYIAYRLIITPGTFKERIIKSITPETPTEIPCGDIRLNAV

PDE4B = PDE4B (Homo sapiens, UniProt Q07343); conditions: Harvey et al., 2011; cited from earlier work
PDE4B, sequence (Q07343 whole entry, species assumed): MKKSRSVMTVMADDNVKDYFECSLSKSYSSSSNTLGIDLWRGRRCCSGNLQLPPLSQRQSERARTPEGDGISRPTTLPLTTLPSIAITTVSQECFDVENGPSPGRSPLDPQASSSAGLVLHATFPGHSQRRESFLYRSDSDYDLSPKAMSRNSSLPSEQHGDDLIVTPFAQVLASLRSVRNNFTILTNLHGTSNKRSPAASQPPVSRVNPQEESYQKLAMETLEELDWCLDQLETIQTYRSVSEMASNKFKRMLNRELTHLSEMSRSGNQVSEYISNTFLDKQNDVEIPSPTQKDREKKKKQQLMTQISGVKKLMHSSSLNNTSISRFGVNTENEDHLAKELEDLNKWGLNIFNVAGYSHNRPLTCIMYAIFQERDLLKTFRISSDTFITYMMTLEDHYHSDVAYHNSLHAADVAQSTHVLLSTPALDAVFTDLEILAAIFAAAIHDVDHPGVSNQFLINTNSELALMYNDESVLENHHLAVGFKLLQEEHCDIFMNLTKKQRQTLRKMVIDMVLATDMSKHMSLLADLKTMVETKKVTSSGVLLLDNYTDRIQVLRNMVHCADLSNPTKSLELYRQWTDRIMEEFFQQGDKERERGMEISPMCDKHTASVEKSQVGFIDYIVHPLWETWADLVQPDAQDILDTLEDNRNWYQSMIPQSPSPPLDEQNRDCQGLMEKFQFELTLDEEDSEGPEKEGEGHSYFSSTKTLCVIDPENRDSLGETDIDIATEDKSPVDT

[8] = Target pH 1.2 (chloride buffer)
[9] = Target pH 1.2, ca. 20 mg in 0.1 mL buffer
[10] = Target pH 4.5, ca. 20 mg in 0.1 mL buffer
[11] = Target pH 6.8 (phosphate buffer)
[12] = Target pH 6.8, ca. 20 mg in 0.1 mL buffer
[13] = 200 mg/mL, water activity aw 0.8 (methanol/water 33:67)
[14] = 400 mg/mL, water activity aw 0.5 (methanol/water 75:25)
[15] = Ambient light, temperature and humidity, 1 week
[16] = 200 mg/mL, water activity aw 0.2 (methanol/water 99:1)
[17] = 1000 mg/mL, water activity aw 0.2 (methanol/water 99:1)
[18] = 1000 mg/mL, water activity aw 0.5 (methanol/water 75:25)
[19] = 1000 mg/mL, water activity aw 0.8 (methanol/water 33:67)

SMILES | HPLC Conc. [1, 8] [mg/mL] | Observation [1, 9] | HPLC Conc. ([1]; Target pH 4.5 (acetate buffer)) [mg/mL] | Observation [1, 10] | HPLC Conc. [1, 11] [mg/mL] | Observation [1, 12] | HPLC Purity ([1]; Target pH 1.2, 24 h) [% area] | HPLC Purity ([1]; Target pH 4.5, 24 h) [% area] | HPLC Purity ([1]; Target pH 6.8, 24 h) [% area] | DVS water uptake ([2]; 80% RH, 25° C.) [wt %] | hygroscopicity ([2]; 25° C.) | HPLC (1-week stability study; 40° C./75% RH (open), 1 week) [% area] | XRPD (pattern number) (1-week stability study; 40° C./75% RH (open), 1 week) | Observation (1-week stability study; 40° C./75% RH (open), 1 week) | HPLC (1-week stability study; 80° C. (closed), 1 week) [% area] | XRPD (pattern number) (1-week stability study; 80° C. (closed), 1 week) | Observation (1-week stability study; 80° C. (closed), 1 week) | HPLC (1-week stability study; [15]) [% area] | XRPD (pattern number) (1-week stability study; [15]) | Observation (1-week stability study; [15]) | further results
COc1ccc(C23CCC(=O)CC2N(C)CC3)cc1OC.O=C(O)C=CC(=O)O (stereo not drawn) [Fumarate Pattern 1 + 4, mesembrine fumarate] | 29.44 | Slurry | >24 | Clear solution | 18.98 | Oil | 96.31 | 96.07 | 96.78 | 0.7 | slightly hygroscopic | 95.6 | 1/4, | Faint beige solids (BE10 | 83.4 | 6, | Light brown solids (BR8) | 96.1 | 1/4, | Faint beige solids (BE10 | DVS water uptake ([2]; between 0-20% RH): 2.1 wt %; Observation [3, 13]: Thick slurry; Observation ([3]; 400 mg/mL, water activity aw 0.2 (methanol/water 99:1)): Thick slurry; Observation [3, 14]: Slurry; solid form by VH-XRPD ([4]; at 0% RH): fumarate Pattern 5; HPLC (1-week stability study; Input): 96.6 % area; XRPD (pattern number) (1-week stability study; Input): 1/4,; Observation (1-week stability study; Input): Faint beige solids (BE10)
COc1ccc(C23CCC(=O)CC2N(C)CC3)cc1OC.Cl (stereo not drawn) [Hydrochloride Pattern 1, reference compound] | >105 | Clear solution | >146 | Clear solution | >122 | Clear solution | 97.09 | 93.45 | 92.87 | 5.4 | hygroscopic | 93.4 | 1, | Light brown solids (BR8) | 92.8 | 1, | Light brown solids (BR8) | 91.5 | 1, | Faint beige solids (BE10) | solution degradation (Comments) [5]: degradation; DVS water uptake ([2]; 90% RH): 20.3 wt %; physical stability at 40° C./75% RH (Comments) [6]: physically stable; Observation [3, 16]: Clear solution; Observation ([3]; 200 mg/mL, water activity aw 0.5 (methanol/water 75:25)): Clear solution; Observation [3, 13]: Clear solution; Observation [3, 17]: Clear solution; Observation [3, 18]: Slurry; Observation [3, 19]: Slurry; solid form by VH-XRPD ([4]; after 12 h at 90% RH): remained consistent with hydrochloride salt Pattern 1; HPLC (1-week stability study; Input): 90.5 % area; XRPD (pattern number) (1-week stability study; Input): 1,; Observation (1-week stability study; Input): Faint beige solids (BE10); Solubility [7]: poorly soluble at higher concentrations
COc1ccc(C23CCC(=O)CC2N(C)CC3)cc1OC.O=S(=O)(O)c1ccccc1 (stereo not drawn) [Besylate Pattern 1, mesembrine besylate] | >172 | Clear solution | >140 | Clear solution | >97 | Clear solution | 98.01 | 98.02 | 97.62 | 2.3 | hygroscopic | 98.0 | 1, | Light brown solids (BR8) | 96.7 | 1, | Faint beige solids (BE10) | 98.1 | 1, | Faint beige solids (BE10) | solution degradation (Comments) [5]: degradation; DVS water uptake ([2]; 90% RH): 13 wt %; physical stability at 40° C./75% RH (Comments) [6]: physically stable; Observation [3, 16]: Clear solution; Observation [3, 14]: Clear solution; Observation ([3]; 400 mg/mL, water activity aw 0.8 (methanol/water 33:67)): Clear solution; Observation [3, 17]: Clear solution; Observation [3, 18]: Clear solution; Observation [3, 19]: Clear solution; Solubility ([3]; listed as besylate salt): greater than 1000 mg/mL; Solubility ([3]; listed as besylate salt Pattern 1): > 1000 mg/mL; solid form by VH-XRPD ([4]; after 17 h at 90% RH): persisted; HPLC (1-week stability study; Input): 98.1 % area; XRPD (pattern number) (1-week stability study; Input): 1,; Observation (1-week stability study; Input): Faint beige solids (BE10)
COc1ccc(C23C=CC(O)CC2N(C)CC3)cc1OC (stereo not drawn) [mesembrenol] | – | – | – | – | – | – | – | – | – | – | – | – | – | – | – | – | – | – | – | – | activity in a 5-HT transporter binding assay (5-HT transporter): potently active; activity against PDE4B activity (PDE4B): potently active
